From PubChem BioAssay AID330 (DTP/NCI, 2004)
Several values for one entry are separate records, joined by “and”; a condition that tells them apart may be missing. Identical values can stand only once. Inconclusive results and toxic doses are left out. How the source made its calls: active means survival T/C of 150% or more; inactive means T/C below 125% in these data.

System: P388 leukemia ip, CD2F1 mice, survival T/C
Assay: NCI In Vivo Anticancer Drug Screen. Data for tumor model P388 Leukemia (intraperitoneal) in CD2F1 (CDF1) mice
Settings: endpoint: median survival time, higher = longer survival
Summary of the method: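 Mice carrying the transplanted tumor received test compound or vehicle. Survival was recorded in each group, and the value is the treated-group measurement divided by that of the vehicle-treated control group.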

[1] = dose: 5.0 mg/kg/injection, schedule: Q01DX009 (ip), vehicle: saline
[2] = dose: 10.0 mg/kg/injection, schedule: Q01DX009 (ip), vehicle: saline
[3] = dose: 20.0 mg/kg/injection, schedule: Q01DX009 (ip), vehicle: saline
[4] = dose: 60.0 mg/kg/injection, schedule: Q01DX005 (ip), vehicle: saline with Tween-80
[5] = dose: 100.0 mg/kg/injection, schedule: Q04DX003 (ip), vehicle: Klucel (hydroxypropylcellulose) (HPC)
[6] = dose: 200.0 mg/kg/injection, schedule: Q04DX003 (ip), vehicle: Klucel (hydroxypropylcellulose) (HPC)
[7] = dose: 50.0 mg/kg/injection, schedule: Q01DX005 (ip), vehicle: Klucel (hydroxypropylcellulose) (HPC)
[8] = dose: 100.0 mg/kg/injection, schedule: Q01DX005 (ip), vehicle: Klucel (hydroxypropylcellulose) (HPC)

Measured: T/C

Cc1ccc(N2C(=O)c3cccc4c(N)c(S(=O)(=O)O)cc(c34)C2=O)cc1
inactive: dose: 50.0 mg/kg/injection, schedule: Q01DX009 (ip), vehicle: saline 108 % of control | dose: 100.0 mg/kg/injection, schedule: Q01DX009 (ip), vehicle: saline 104 % of control | dose: 200.0 mg/kg/injection, schedule: Q01DX009 (ip), vehicle: saline 100 % of control

c1cc(-c2nn[nH]n2)ccc1NNc1ccc(-c2nn[nH]n2)cc1
inactive: dose: 50.0 mg/kg/injection, schedule: Q01DX001 (ip), vehicle: Klucel (hydroxypropylcellulose) (HPC) 101 % of control | dose: 100.0 mg/kg/injection, schedule: Q01DX001 (ip), vehicle: Klucel (hydroxypropylcellulose) (HPC) 105 % of control | dose: 200.0 mg/kg/injection, schedule: Q01DX001 (ip), vehicle: Klucel (hydroxypropylcellulose) (HPC) 98 % of control

N=C(N)c1ccc2oc(CCc3cc4ccc(C(=N)N)cc4[nH]3)cc2c1
inactive: dose: 3.12 mg/kg/injection, schedule: Q04DX003 (ip), vehicle: suspension in saline 100 % of control | dose: 6.25 mg/kg/injection, schedule: Q04DX003 (ip), vehicle: suspension in saline 113 % of control | dose: 12.5 mg/kg/injection, schedule: Q04DX003 (ip), vehicle: suspension in saline 110 % of control

COC(=O)c1cc(OC)nc(OC)n1
inactive: dose: 12.5 mg/kg/injection, schedule: Q01DX009 (ip), vehicle: distilled water + Tween-80 108 % of control | dose: 25.0 mg/kg/injection, schedule: Q01DX009 (ip), vehicle: distilled water + Tween-80 96 % of control | dose: 50.0 mg/kg/injection, schedule: Q01DX009 (ip), vehicle: distilled water + Tween-80 105 % of control | dose: 100.0 mg/kg/injection, schedule: Q01DX009 (ip), vehicle: distilled water + Tween-80 99 % of control

CC(=O)[O][Hg][CH2]C1Cc2ccccc2O1 (stereo unspecified)
inactive: dose: 2.5 mg/kg/injection, schedule: Q01DX009 (ip), vehicle: saline 98 % of control | [1] 99 % of control | [2] 99 % of control | [3] 100 % of control

Cc1nn(-c2ccccc2)c2oc3ccccc3c(=O)c12
inactive: dose: 60.0 mg/kg/injection, schedule: Q01DX005 (ip), vehicle: saline 92 % of control | dose: 120.0 mg/kg/injection, schedule: Q01DX005 (ip), vehicle: saline 100 % of control | dose: 240.0 mg/kg/injection, schedule: Q01DX005 (ip), vehicle: saline 96 % of control

c1cc[n+](Cc2ccc3ccccc3c2)c(C2OCCO2)c1
inactive: [1] 100 % of control | [2] 100 % of control | [3] 104 % of control

N#Cc1c2c(c(Cl)n3c1nc1ccccc13)CCC2
inactive: [4] 100 % of control | dose: 120.0 mg/kg/injection, schedule: Q01DX005 (ip), vehicle: saline with Tween-80 91 % of control | dose: 240.0 mg/kg/injection, schedule: Q01DX005 (ip), vehicle: saline with Tween-80 91 % of control

CCC(=O)/C=C/c1ccc(N(C)C)cc1
inactive: [5] 93 % of control | [6] 89 % of control

CC(=O)OCCC/C(=C/c1cc2ccccc2c2ccccc12)[N+](=O)[O-]
inactive: [5] 104 % of control | [6] 109 % of control | dose: 400.0 mg/kg/injection, schedule: Q04DX003 (ip), vehicle: Klucel (hydroxypropylcellulose) (HPC) 109 % of control

C=C(C)C12OC3(CCCCCCCCC)OC1C1C4OC4(CO)C(O)C4(O)C(=O)C(C)=CC4C1(O3)C(C)C2OC(C)=O (stereo unspecified)
inactive: dose: 12.5 micrograms/kg/injection, schedule: Q01DX009 (ip), vehicle: saline + alcohol 101 % of control | dose: 25.0 micrograms/kg/injection, schedule: Q01DX009 (ip), vehicle: saline + alcohol 104 % of control | dose: 50.0 micrograms/kg/injection, schedule: Q01DX009 (ip), vehicle: saline + alcohol 104 % of control | dose: 100.0 micrograms/kg/injection, schedule: Q01DX009 (ip), vehicle: saline + alcohol 104 % of control | dose: 200.0 micrograms/kg/injection, schedule: Q01DX009 (ip), vehicle: saline + alcohol 123 % of control

CN(C)c1c2c(=O)n(C)c(=O)n(C)c2nc2cccc[n+]12
inactive: [7] 95 % of control | [8] 106 % of control | dose: 200.0 mg/kg/injection, schedule: Q01DX005 (ip), vehicle: Klucel (hydroxypropylcellulose) (HPC) 104 % of control

C(=NCCN=Cc1ccc2c(c1)OCO2)c1ccc2c(c1)OCO2
inactive: dose: 25.0 mg/kg/injection, schedule: Q01DX009 (ip), vehicle: saline with Tween-80 93 % of control | dose: 50.0 mg/kg/injection, schedule: Q01DX009 (ip), vehicle: saline with Tween-80 92 % of control | dose: 100.0 mg/kg/injection, schedule: Q01DX009 (ip), vehicle: saline with Tween-80 99 % of control | dose: 200.0 mg/kg/injection, schedule: Q01DX009 (ip), vehicle: saline with Tween-80 100 % of control

CN(C)CCCNC1C(C2COC(C)(C)O2)OC2OC(C)(C)OC21 (stereo unspecified)
inactive: dose: 100.0 mg/kg/injection, schedule: Q04DX002 (ip), vehicle: saline 97 % of control | dose: 200.0 mg/kg/injection, schedule: Q04DX002 (ip), vehicle: saline 95 % of control | dose: 400.0 mg/kg/injection, schedule: Q04DX002 (ip), vehicle: saline 93 % of control

O=C1C(c2cnccn2)=C(O)c2ccccc21
inactive: dose: 15.0 mg/kg/injection, schedule: Q01DX005 (ip), vehicle: saline with Tween-80 91 % of control | dose: 30.0 mg/kg/injection, schedule: Q01DX005 (ip), vehicle: saline with Tween-80 97 % of control | [4] 100 % of control and 90 % of control

CN(C)CCCNc1nnc(NCCCN(C)C)c2cc3ccccc3cc12
inactive: dose: 7.5 mg/kg/injection, schedule: Q01DX005 (ip), vehicle: saline 98 % of control | dose: 15.0 mg/kg/injection, schedule: Q01DX005 (ip), vehicle: saline 94 % of control | dose: 30.0 mg/kg/injection, schedule: Q01DX005 (ip), vehicle: saline 110 % of control

N#CC(OC1OC(COC2OC(CO)C(O)C(O)C2O)C(O)C(O)C1O)c1ccccc1 (stereo unspecified)
inactive: dose: 25.0 mg/kg/injection, schedule: Q01DX009 (ip), vehicle: water 102 % of control and 108 % of control | dose: 50.0 mg/kg/injection, schedule: Q01DX009 (ip), vehicle: water 101 % of control and 108 % of control | dose: 100.0 mg/kg/injection, schedule: Q01DX009 (ip), vehicle: water 102 % of control and 105 % of control and 94 % of control | dose: 200.0 mg/kg/injection, schedule: Q01DX009 (ip), vehicle: water 105 % of control and 109 % of control and 92 % of control | dose: 400.0 mg/kg/injection, schedule: Q01DX009 (ip), vehicle: water 105 % of control and 110 % of control and 96 % of control | dose: 800.0 mg/kg/injection, schedule: Q01DX009 (ip), vehicle: saline 98 % of control | dose: 800.0 mg/kg/injection, schedule: Q01DX009 (ip), vehicle: water 105 % of control and 123 % of control and 96 % of control | dose: 1600.0 mg/kg/injection, schedule: Q01DX009 (ip), vehicle: saline 100 % of control

CC12OCCC1C(c1ccccc1[N+](=O)[O-])Nc1ccccc12 (stereo unspecified)
inactive: dose: 100.0 mg/kg/injection, schedule: Q01DX001 (ip), vehicle: saline with Tween-80 114 % of control | dose: 200.0 mg/kg/injection, schedule: Q01DX001 (ip), vehicle: saline with Tween-80 97 % of control | dose: 400.0 mg/kg/injection, schedule: Q01DX001 (ip), vehicle: saline with Tween-80 94 % of control

O=C(CBr)NCC1OC(n2cnc3c(=O)[nH]cnc32)C(O)C1O (stereo unspecified)
inactive: dose: 25.0 mg/kg/injection, schedule: Q01DX005 (ip), vehicle: Klucel (hydroxypropylcellulose) (HPC) 99 % of control | [7] 96 % of control | [8] 99 % of control

CC(=O)NC1=C(Cl)C(=O)c2ccccc2C1=O
inactive: dose: 0.78 mg/kg/injection, schedule: Q01DX009 (ip), vehicle: Klucel (hydroxypropylcellulose) (HPC) 98 % of control | dose: 1.56 mg/kg/injection, schedule: Q01DX009 (ip), vehicle: Klucel (hydroxypropylcellulose) (HPC) 100 % of control | dose: 3.13 mg/kg/injection, schedule: Q01DX009 (ip), vehicle: Klucel (hydroxypropylcellulose) (HPC) 107 % of control | dose: 6.25 mg/kg/injection, schedule: Q01DX009 (ip), vehicle: Klucel (hydroxypropylcellulose) (HPC) 104 % of control and 88 % of control

C1CCC2OCN3CCCCC3CC2C1 (stereo unspecified)
inactive: dose: 12.5 mg/kg/injection, schedule: Q01DX005 (ip), vehicle: saline 107 % of control and 98 % of control | dose: 25.0 mg/kg/injection, schedule: Q01DX005 (ip), vehicle: saline 99 % of control and 98 % of control | dose: 50.0 mg/kg/injection, schedule: Q01DX005 (ip), vehicle: saline 100 % of control and 111 % of control and 113 % of control | dose: 100.0 mg/kg/injection, schedule: Q01DX005 (ip), vehicle: saline 114 % of control and 118 % of control and 121 % of control

COCCOc1cccc2c1C(=O)c1ccccc1C2=O
inactive: dose: 50.0 mg/kg/injection, schedule: Q01DX005 (ip), vehicle: saline with Tween-80 102 % of control | dose: 100.0 mg/kg/injection, schedule: Q01DX005 (ip), vehicle: saline with Tween-80 91 % of control
